The target of assay [1] is T1, Induced myeloid leukemia cell differentiation protein Mcl-1 (Homo sapiens, UniProt Q07820).
Assay [2] addresses T1, Induced myeloid leukemia cell differentiation protein Mcl-1. This is another data set of the same source.
The target in assay [3] is Bcl-2-like protein 1 (Homo sapiens, UniProt Q07817).
Assay [4] addresses T1, Induced myeloid leukemia cell differentiation protein Mcl-1. The source holds these as a separate data set.

One may read the Ki as the equilibrium dissociation constant of an inhibitor or competing ligand from its target. Read a high Ki as weaker binding. For orientation: IC50 means the concentration needed to halve the response being measured. Low values mean greater potency in that assay, high ones weaker potency in that assay.

Sequence of Bcl-2-like protein 1 (Q07817 whole entry): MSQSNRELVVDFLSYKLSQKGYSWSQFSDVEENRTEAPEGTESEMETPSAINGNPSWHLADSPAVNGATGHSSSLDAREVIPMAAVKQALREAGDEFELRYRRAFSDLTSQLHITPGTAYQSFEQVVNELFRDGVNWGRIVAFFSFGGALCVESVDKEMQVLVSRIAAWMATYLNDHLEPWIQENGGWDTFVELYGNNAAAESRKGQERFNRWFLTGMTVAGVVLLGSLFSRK
T1 sequence (Q07820 whole entry): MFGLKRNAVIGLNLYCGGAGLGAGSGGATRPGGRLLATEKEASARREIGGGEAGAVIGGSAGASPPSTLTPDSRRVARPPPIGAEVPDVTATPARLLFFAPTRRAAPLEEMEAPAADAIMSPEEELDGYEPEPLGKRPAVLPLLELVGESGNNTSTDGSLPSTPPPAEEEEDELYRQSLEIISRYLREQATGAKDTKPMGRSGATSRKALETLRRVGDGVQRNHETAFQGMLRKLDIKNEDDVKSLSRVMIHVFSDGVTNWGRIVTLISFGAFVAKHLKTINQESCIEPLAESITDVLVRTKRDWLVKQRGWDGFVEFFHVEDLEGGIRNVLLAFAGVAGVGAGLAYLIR

`Cc1cc(OCCCc2c(C(=O)NS(=O)(=O)CCCNC3CCCCC3)[nH]c3ccccc23)cc(C)c1Cl` had a Ki in assay [1] of 1020 nM.

For the molecule `Cc1cc(OCCCc2c(C(=O)NS(=O)(=O)c3ccncc3)[nH]c3ccccc23)cc(C)c1Cl`, in assay [1], the inhibitory constant (Ki) came out at 335 nM.

Molecule `Cc1cc(OCCCc2c(C(=O)NS(=O)(=O)CCNC(=O)c3ccc(F)cc3)[nH]c3ccccc23)cc(C)c1Cl` displayed a Ki in assay [1] of 117 nM.

In assay [1], `Cc1cc(OCCCc2c(C(=O)NS(=O)(=O)c3ccco3)[nH]c3cc(Cl)ccc23)cc(C)c1Cl` displayed a Ki of 116 nM.

With `Cc1cc(OCCCc2c(C(=O)NS(=O)(=O)c3ccnc(NCCC(C)C)c3)[nH]c3c(-c4c(C)nn(C)c4C)c(Cl)ccc23)cc(C)c1Cl`, the inhibition constant Ki in assay [2] was 5.6 nM; in assay [3], 4470 nM; in assay [1], below 10 nM; in assay [4], 179 nM.

With `Cc1cc(OCCCc2c(C(=O)NS(=O)(=O)CCNC(=O)C(C)C)[nH]c3cc(Cl)ccc23)cc(C)c1Cl`, in assay [1], affinity was put at a Ki of 66 nM.

For the molecule `CC(=O)NCc1cccc(S(=O)(=O)NC(=O)c2[nH]c3c(-c4c(C)nn(C)c4C)c(Cl)ccc3c2CCCOc2cc(C)c(Cl)c(C)c2)c1`, the Ki in assay [2] is 11.1 nM; in assay [3] it was 9070 nM; in assay [1] it was below 10 nM; in assay [4], 42 nM.

In turn, `Cc1cc(OCCCc2c(C(=O)NS(C)(=O)=O)[nH]c3cc(Cl)ccc23)cc(C)c1Cl` displayed a Ki in assay [1] of 209 nM.

The molecule `CCC(=O)NCCS(=O)(=O)NC(=O)c1[nH]c2cc(Cl)ccc2c1CCCOc1cc(C)c(Cl)c(C)c1` returned a Ki in assay [1] of 87 nM.

With `Cc1cc(OCCCc2c(C(=O)NS(=O)(=O)CCNC(=O)C(F)(F)F)[nH]c3cc(Cl)ccc23)cc(C)c1Cl`, affinity in assay [1] was put at a Ki of 116 nM.

For the molecule `Cc1cc(OCCCc2c(C(=O)NS(=O)(=O)CCNC(=O)c3ccc(C(F)(F)F)cc3)[nH]c3cc(Cl)ccc23)cc(C)c1Cl`, the affinity in assay [1] corresponds to a Ki of 119 nM.

Regarding `Cc1cc(OCCCc2c(C(=O)NS(=O)(=O)CCNC(=O)c3cccn3Cc3ccccc3)[nH]c3ccccc23)cc(C)c1Cl`, the Ki in assay [1] was determined as 148 nM.

`Cc1cc(OCCCc2c(C(=O)NS(=O)(=O)CCNC(=O)c3cccc(C(F)(F)F)c3)[nH]c3cc(Cl)ccc23)cc(C)c1Cl` displayed a Ki in assay [1] of 79 nM.

In assay [1], `Cc1cc(OCCCc2c(C(=O)NS(=O)(=O)c3ccccc3)[nH]c3c(-c4cccnc4)cccc23)cc(C)c1Cl` gave an inhibition constant (Ki) of 202 nM.

On to `CCC(CC)C(=O)NCCS(=O)(=O)NC(=O)c1[nH]c2cc(Cl)ccc2c1CCCOc1cc(C)c(Cl)c(C)c1`, for which, in assay [1], the affinity, expressed as Ki, was 16 nM.

Take `Cc1cc(OCCCc2c(C(=O)NS(=O)(=O)c3ccccc3)[nH]c3c(-c4cccnc4C)c(Cl)ccc23)cc(C)c1Cl`: the inhibitory constant (Ki) was 18 nM in assay [2], below 10 nM in assay [1] and 146 nM in assay [4].

`Cc1cc(OCCCc2c(C(=O)NS(=O)(=O)CCNC(=O)c3ccc4cc[nH]c4c3)[nH]c3ccccc23)cc(C)c1Cl`: the Ki in assay [1] worked out at 278 nM.

In assay [1], `Cc1cc(OCCCc2c(C(=O)NS(C)(=O)=O)[nH]c3ccccc23)cc(C)c1Cl` registered a Ki of 655 nM.

Take `Cc1cc(OCCCc2c(C(=O)NS(=O)(=O)c3ccccc3)[nH]c3c(-c4c(C)n[nH]c4C)cccc23)cc(C)c1Cl`: the Ki is below 10 nM in assay [1] and 517 nM in assay [4].

On to `Cc1cc(OCCCc2c(C(=O)NS(=O)(=O)CCNC(=O)c3cccc(F)c3)[nH]c3ccccc23)cc(C)c1Cl`, for which the affinity in assay [1], expressed as Ki, was 100 nM.

`Cc1cc(OCCCc2c(C(=O)NS(=O)(=O)CCNC(=O)Cc3cn(C)c4ccccc34)[nH]c3ccccc23)cc(C)c1Cl` came in with a Ki in assay [1] of 298 nM.

In assay [1], `Cc1cc(OCCCc2c(C(=O)NS(=O)(=O)CCNC(=O)C3CCCCC3)[nH]c3cc(Cl)ccc23)cc(C)c1Cl` gave a Ki of 55 nM.

In assay [2], `Cc1cc(OCCCc2c(C(=O)NS(=O)(=O)c3ccc(C(=O)O)o3)[nH]c3c(-c4c(C)nn(C)c4C)c(Cl)ccc23)cc(C)c1Cl` returned an IC50 of 2.1 nM and a Ki of 0.78 nM.

Regarding `Cc1cc(OCCCc2c(C(=O)NS(=O)(=O)CCNC(=O)c3cc(-c4ccccc4O)n[nH]3)[nH]c3cc(Cl)ccc23)cc(C)c1Cl`, the inhibitory constant (Ki) in assay [1] came out at 308 nM.

In the case of `Cc1cc(OCCCc2c(C(=O)NS(=O)(=O)CCNC(=O)c3ccco3)[nH]c3cc(Cl)ccc23)cc(C)c1Cl`, affinity in assay [1] was put at a Ki of 53 nM.

In the case of `Cc1cc(OCCCc2c(C(=O)NS(=O)(=O)c3cccc(CNC(=O)c4ccoc4)c3)[nH]c3c(-c4c(C)nn(C)c4C)c(Cl)ccc23)cc(C)c1Cl`, the Ki in assay [2] is 2.9 nM; in assay [3] it was 1400 nM; in assay [1], below 10 nM; in assay [4] it was 69 nM.

`Cc1cc(OCCCc2c(C(=O)NS(=O)(=O)CCNC(=O)CC(C)C)[nH]c3cc(Cl)ccc23)cc(C)c1Cl` had a Ki in assay [1] of 10 nM.

For `Cc1cc(OCCCc2c(C(=O)NS(=O)(=O)CCNC(=O)c3ccccc3C(F)(F)F)[nH]c3cc(Cl)ccc23)cc(C)c1Cl`, the inhibition constant Ki in assay [1] is 18 nM.

On to `Cc1cc(OCCCc2c(C(=O)NS(=O)(=O)CCNC(=O)c3ccoc3)[nH]c3cc(Cl)ccc23)cc(C)c1Cl`, for which the Ki in assay [1] is 19 nM.

As to `Cc1cc(OCCCc2c(C(=O)NS(=O)(=O)CCNC(=O)c3ccccc3F)[nH]c3ccccc23)cc(C)c1Cl`, affinity in assay [1] was put at a Ki of 336 nM.

Regarding `Cc1cc(OCCCc2c(C(=O)NS(=O)(=O)c3cccc(CNC(=O)c4ccccc4C(F)(F)F)c3)[nH]c3c(-c4c(C)nn(C)c4C)c(Cl)ccc23)cc(C)c1Cl`, the Ki in assay [2] was 5 nM; in assay [3], 4470 nM; in assay [1] it was below 10 nM; in assay [4] it was 80 nM.

`O=C(NS(=O)(=O)CCNC(=O)C1CCCCC1)c1[nH]c2cc(Cl)ccc2c1CCCOc1cccc2ccccc12` showed a Ki in assay [1] of 374 nM.

For the molecule `Cc1cc(OCCCc2c(C(=O)NS(=O)(=O)CCNC(=O)C3CCCCC3)[nH]c3ccccc23)cc(C)c1Cl`, in assay [1], the inhibition constant Ki came to 118 nM.

In assay [1], `Cc1cc(OCCCc2c(C(=O)NS(=O)(=O)CCNC(=O)CC3CCCCC3)[nH]c3ccccc23)cc(C)c1Cl` had an inhibition constant Ki of 1100 nM.

Consider `Cc1cc(OCCCc2c(C(=O)NS(=O)(=O)c3ccnc(NCCc4ccccc4)c3)[nH]c3c(-c4c(C)nn(C)c4C)c(Cl)ccc23)cc(C)c1Cl`, for which the Ki is 1.2 nM in assay [2], 1110 nM in assay [3], below 10 nM in assay [1] and 78 nM in assay [4].

Consider `Cc1cc(OCCCc2c(C(=O)NS(=O)(=O)CCNS(=O)(=O)C3CCCCC3)[nH]c3ccccc23)cc(C)c1Cl`, for which the Ki in assay [1] stood at 251 nM.

On to `CS(=O)(=O)NC(=O)c1[nH]c2cc(Cl)ccc2c1CCCOc1cccc2ccccc12`, for which the Ki in assay [1] came to 231 nM.

Turning to `Cc1cc(OCCCc2c(C(=O)NS(=O)(=O)CCNC(=O)c3ccc[nH]3)[nH]c3cc(Cl)ccc23)cc(C)c1Cl`, affinity in assay [1] was put at a Ki of 782 nM.

`Cc1cc(OCCCc2c(C(=O)NS(=O)(=O)c3ccccc3)[nH]c3c(-c4c(C)n[nH]c4C)c(Cl)ccc23)cc(C)c1Cl`: the Ki in assay [1] is below 10 nM; in assay [4], 147 nM.

Take `Cc1cc(OCCCc2c(C(=O)NS(=O)(=O)c3ccccc3)[nH]c3c(-c4c(C)nn(C)c4C)c(Cl)ccc23)cc(C)c1Cl`: the Ki in assay [2] was 17 nM; in assay [1], below 10 nM; in assay [4], 64 nM.

As to `Cc1cc(OCCCc2c(C(=O)NS(=O)(=O)c3ccnc(NC4Cc5ccccc5C4)c3)[nH]c3c(-c4c(C)nn(C)c4C)c(Cl)ccc23)cc(C)c1Cl`, the inhibitory constant (Ki) in assay [2] was 1 nM; in assay [3], 997 nM; in assay [1], below 10 nM; in assay [4], 61 nM.

On to `Cc1cc(OCCCc2c(C(=O)NS(=O)(=O)CCNC(=O)c3cccn3C)[nH]c3ccccc23)cc(C)c1Cl`, for which the affinity in assay [1] corresponds to a Ki of 90 nM.

In the case of `Cc1cc(OCCCc2c(C(=O)NS(=O)(=O)c3ccc(C(=O)NCc4ccncc4)o3)[nH]c3c(-c4c(C)nn(C)c4C)c(Cl)ccc23)cc(C)c1Cl`, the Ki in assay [2] is 8.5 nM; in assay [3] it was above 50000 nM; in assay [1], below 10 nM; in assay [4], 20 nM.

The molecule `Cc1cc(OCCCc2c(C(=O)NS(=O)(=O)CCNC(=O)[C@H]3Cc4ccccc4N3)[nH]c3cc(Cl)ccc23)cc(C)c1Cl` had an inhibition constant (Ki) in assay [1] of 28 nM.

Regarding `Cc1cc(OCCCc2c(C(=O)NS(=O)(=O)c3ccnc(N(C)CCc4ccccc4)c3)[nH]c3c(-c4c(C)nn(C)c4C)c(Cl)ccc23)cc(C)c1Cl`, the Ki in assay [2] is 2.5 nM; in assay [3], 943 nM; in assay [1], below 10 nM; in assay [4], 226 nM.

In the case of `Cc1cc(OCCCc2c(C(=O)NS(=O)(=O)CCNC(=O)c3ccc4[nH]ccc4c3)[nH]c3ccccc23)cc(C)c1Cl`, the Ki in assay [1] was 269 nM.

For `CC(=O)NCCS(=O)(=O)NC(=O)c1[nH]c2cc(Cl)ccc2c1CCCOc1cc(C)c(Cl)c(C)c1`, the affinity in assay [1] corresponds to a Ki of 209 nM.

In the case of `Cc1cc(OCCCc2c(C(=O)NS(=O)(=O)c3ccccc3)[nH]c3c(-c4cccnc4C)cccc23)cc(C)c1Cl`, the Ki in assay [1] amounted to 14 nM.

`Cc1ccncc1-c1cccc2c(CCCOc3cc(C)c(Cl)c(C)c3)c(C(=O)NS(=O)(=O)c3ccccc3)[nH]c12` gave a Ki in assay [1] of 36 nM.

As to `Cc1cc(OCCCc2c(C(=O)NS(=O)(=O)CCNC(=O)c3cccn3-c3ccccc3)[nH]c3ccccc23)cc(C)c1Cl`, the Ki in assay [1] worked out at 139 nM.

Turning to `Cc1cc(OCCCc2c(C(=O)NS(=O)(=O)CCNC(=O)[C@@H]3Cc4ccccc4N3)[nH]c3ccccc23)cc(C)c1Cl`, in assay [1], the Ki amounted to 193 nM.

With `Cc1cc(OCCCc2c(C(=O)NS(=O)(=O)CCOc3ccccc3)[nH]c3ccccc23)cc(C)c1Cl`, in assay [1], the Ki came to 322 nM.

In the case of `Cc1cc(OCCCc2c(C(=O)NS(=O)(=O)CCNC(=O)[C@@H]3Cc4ccccc4N3)[nH]c3cc(Cl)ccc23)cc(C)c1Cl`, the affinity in assay [1], expressed as Ki, was 46 nM.

In assay [1], `CC(=O)NCCS(=O)(=O)NC(=O)c1[nH]c2ccccc2c1CCCOc1cc(C)c(Cl)c(C)c1` returned an inhibition constant (Ki) of 656 nM.

For the molecule `Cc1cc(OCCCc2c(C(=O)NS(=O)(=O)CCNC(=O)c3ccccc3)[nH]c3ccccc23)cc(C)c1Cl`, the inhibitory constant (Ki) in assay [1] was 430 nM.

In turn, `Cc1cc(OCCCc2c(C(=O)NS(=O)(=O)CCNC(=O)c3cc4ccccc4o3)[nH]c3ccccc23)cc(C)c1Cl` came in with a Ki in assay [1] of 311 nM.

In the case of `Cc1cc(OCCCc2c(C(=O)NS(=O)(=O)c3ccccc3)[nH]c3cc(Cl)ccc23)cc(C)c1Cl`, the Ki in assay [1] stood at 91 nM.

On to `Cc1cc(OCCCc2c(C(=O)NS(=O)(=O)CCNC(=O)c3cn(C)c4ccccc34)[nH]c3ccccc23)cc(C)c1Cl`, for which the Ki in assay [1] worked out at 432 nM.

These data come from ChEMBL document CHEMBL3785006, “Discovery of 2-Indole-acylsulfonamide Myeloid Cell Leukemia 1 (Mcl-1) Inhibitors Using Fragment-Based Methods” (J Med Chem, 2016).
